Legend:
[1] = system: Rabbit Psoas myofibrils (skeletal myosin ATPase); experiment: Myofibril ATPase assay, rabbit psoas (skeletal) myofibrils; type: biochemical; settings: rabbit psoas myofibrils
How it was run: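 Myofibrils homogenized in Triton X-100 buffer were assayed in pH 7.0 PIPES with defined Ca2+/EGTA. Myosin-driven ADP formation was coupled to NADH oxidation, with depletion monitored at 340 nm. Each value is the concentration that lowers activity to 75% of vehicle or, for activators, raises it to 125%.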

[2] = system: Porcine atria myofibrils (atrial myosin ATPase); experiment: Myofibril ATPase assay, porcine atria myofibrils; type: biochemical; settings: porcine atria myofibrils
How it was run: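 Values are Y75 (concentration cutting ATPase activity to 75% of vehicle) or Y125 (raising it to 125%), taken from 4-parameter logistic fits. Rates come from NADH disappearance at 340 nm in a PK/LDH-coupled assay with porcine atria myofibrils.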

[3] = biological target: T1, Porcine ventricle myofibrils (ventricular myosin ATPase) (Sus scrofa, UniProt P79293); experiment: Myofibril ATPase assay, porcine ventricle myofibrils; type: biochemical, porcine (Yucatan minipigs); settings: porcine ventricle myofibrils
T1 construct: Myofibrils from porcine cardiac muscle was isolated from the left ventricle of Yucatan minipigs; tissue Exemplar Genetics; host or cells: left ventricle of Yucatan minipigs, myofibrils prepared in house
T1 sequence (P79293 whole entry): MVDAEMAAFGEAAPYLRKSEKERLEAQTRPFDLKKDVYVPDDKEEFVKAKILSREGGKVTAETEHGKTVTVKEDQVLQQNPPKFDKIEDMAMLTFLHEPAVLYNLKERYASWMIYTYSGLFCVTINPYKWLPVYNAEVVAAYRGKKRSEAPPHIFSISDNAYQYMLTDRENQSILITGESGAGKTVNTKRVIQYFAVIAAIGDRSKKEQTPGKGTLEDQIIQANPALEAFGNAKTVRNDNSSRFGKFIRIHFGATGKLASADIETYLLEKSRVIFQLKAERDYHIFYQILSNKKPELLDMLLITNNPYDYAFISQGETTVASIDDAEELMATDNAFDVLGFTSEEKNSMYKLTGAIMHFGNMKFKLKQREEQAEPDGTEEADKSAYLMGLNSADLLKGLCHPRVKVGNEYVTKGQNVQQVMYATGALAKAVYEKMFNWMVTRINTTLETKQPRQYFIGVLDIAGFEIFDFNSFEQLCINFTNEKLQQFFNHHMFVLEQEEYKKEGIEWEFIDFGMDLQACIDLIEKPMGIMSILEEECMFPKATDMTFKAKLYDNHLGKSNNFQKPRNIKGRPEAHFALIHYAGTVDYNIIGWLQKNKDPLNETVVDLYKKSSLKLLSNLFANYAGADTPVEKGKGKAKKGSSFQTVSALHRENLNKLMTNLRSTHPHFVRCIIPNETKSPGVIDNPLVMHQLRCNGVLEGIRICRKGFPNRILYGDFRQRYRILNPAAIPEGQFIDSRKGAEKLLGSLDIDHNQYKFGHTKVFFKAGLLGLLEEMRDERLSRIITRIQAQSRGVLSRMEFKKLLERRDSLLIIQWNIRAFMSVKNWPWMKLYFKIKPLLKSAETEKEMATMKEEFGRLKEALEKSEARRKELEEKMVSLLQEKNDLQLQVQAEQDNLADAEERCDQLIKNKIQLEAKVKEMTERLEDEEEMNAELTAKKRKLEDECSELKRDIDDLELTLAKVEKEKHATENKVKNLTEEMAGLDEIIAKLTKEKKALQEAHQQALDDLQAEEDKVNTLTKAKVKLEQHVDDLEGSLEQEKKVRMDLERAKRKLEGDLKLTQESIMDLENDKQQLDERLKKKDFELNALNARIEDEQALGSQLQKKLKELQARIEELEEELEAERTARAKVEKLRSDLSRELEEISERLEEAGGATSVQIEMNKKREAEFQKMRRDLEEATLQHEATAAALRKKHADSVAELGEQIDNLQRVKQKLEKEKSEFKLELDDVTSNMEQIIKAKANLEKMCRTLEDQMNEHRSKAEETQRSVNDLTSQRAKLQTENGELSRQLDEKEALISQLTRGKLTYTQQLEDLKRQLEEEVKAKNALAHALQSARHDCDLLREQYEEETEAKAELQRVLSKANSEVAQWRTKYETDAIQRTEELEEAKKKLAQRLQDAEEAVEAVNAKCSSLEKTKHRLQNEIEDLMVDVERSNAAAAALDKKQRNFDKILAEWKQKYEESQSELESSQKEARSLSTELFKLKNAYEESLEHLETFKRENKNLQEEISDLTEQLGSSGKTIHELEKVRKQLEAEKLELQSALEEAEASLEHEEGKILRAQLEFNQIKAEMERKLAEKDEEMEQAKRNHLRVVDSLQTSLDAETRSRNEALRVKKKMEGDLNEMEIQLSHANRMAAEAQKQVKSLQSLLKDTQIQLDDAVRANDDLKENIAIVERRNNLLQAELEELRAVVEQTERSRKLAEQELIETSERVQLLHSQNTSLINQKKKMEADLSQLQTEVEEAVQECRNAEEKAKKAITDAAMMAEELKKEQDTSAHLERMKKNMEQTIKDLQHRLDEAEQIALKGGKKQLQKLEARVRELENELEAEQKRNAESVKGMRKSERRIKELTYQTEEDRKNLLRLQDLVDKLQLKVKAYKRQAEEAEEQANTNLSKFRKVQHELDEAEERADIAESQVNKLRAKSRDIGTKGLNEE
How it was run: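 Read-out: A340 kinetic, NADH consumption coupled to ADP via PK-LDH, 75 min. Yucatan minipig LV myofibrils, pCa buffer (PIPES/CaCl2/EGTA, pH 7.0). Linear-regression slope (mAU/min), vehicle = 100%, 4PL fit; Y75 or Y125 reported.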

[4] = Y75 value (75% activity relative to no compound)

Row | SMILES | Skeletal EC25 ([1]; Y75 value) | Atrial EC25 [2, 4] | Ventricular EC25 ([3]; Y75 value) | Skeletal EC25 ([1]; Y75 value (no ‡ mark)) | Atrial EC25 ([2]; Y75 value (no ‡ mark)) | Ventricular EC25 ([3]; Y75 value (no ‡ mark))
1 | Cc1c(CC(=O)N[C@@H](C)c2ccc(F)cc2F)c(=O)[nH]c2ccnc(OC3CC3)c12 [compound 386] | 0.03 µM | 0.12 µM | 1.51 µM | – | – | –
2 | Cc1c(CC(=O)N[C@H](C)c2ccc(C#N)cn2)c(=O)[nH]c2ccc(C(F)(F)F)nc12 [compound 459] | 100.00 µM | 3.13 µM | 100.00 µM | – | – | –
3 | COc1ccccc1[C@H](C)NC(=O)Cc1c(C)c2c(C)nccc2[nH]c1=O (single isomer, unassigned) [compound 319] | 100.00 µM | 100.00 µM | 100.00 µM | – | – | –
4 | Cc1nc(C#N)ncc1[C@@H](C)NC(=O)Cc1c(C)c2cc(F)ccc2[nH]c1=O [compound 1052] | – | – | – | 0.78 µM | 0.65 µM | 7.05 µM
5 | Cc1c(CC(=O)N[C@@H](C)c2ccc(C#N)cc2F)c(=O)[nH]c2ccnc(OC3CC3)c12 [compound 202] | 0.11 µM | 0.11 µM | 0.83 µM | – | – | –
6 | Cc1nc(C#N)cnc1[C@@H](C)NC(=O)Cc1c(C)c2c(C#N)c(F)ccc2[nH]c1=O (single isomer, unassigned) [compound 1] | – | – | – | 0.11 µM | 0.07 µM | 0.14 µM
7 | Cc1c(CC(=O)N[C@H](C)c2ncc(C3COC3)cn2)c(=O)[nH]c2ccc(F)c(F)c12 (single isomer, unassigned) [compound 2043] | – | – | – | 7.03 µM | 1.01 µM | 4.16 µM
8 | Cc1c(CC(=O)N[C@@H](C)c2ncc(C#N)cc2F)c(=O)[nH]c2ccc(O)nc12 [compound 166] | 3.22 µM | 1.91 µM | 100.00 µM | – | – | –
9 | Cc1c(CC(=O)N[C@@H]2COc3cccnc32)c(=O)[nH]c2ccnc(C#N)c12 (single isomer, unassigned) [compound 212] | 2.21 µM | 14.71 µM | 35.35 µM | – | – | –
10 | Cc1nccc2[nH]c(=O)c(CC(=O)N[C@@H](C)c3c(F)cc(F)cc3F)c(C)c12 [compound 500] | 2.3 µM | 43 µM | 70 µM | – | – | –
11 | Cc1ccc2[nH]c(=O)c(CC(=O)N[C@@H](C)c3ncc(C#N)cc3F)c(C)c2n1 [compound 469] | 0.55 µM | 0.15 µM | 1.66 µM | – | – | –
12 | N#Cc1cnc2c(c1)OC[C@@H]2NC(=O)Cc1cc2c(F)c(F)ccc2[nH]c1=O (single isomer, unassigned) [compound 14] | – | – | – | 0.07 µM | 0.21 µM | 0.34 µM
13 | Cc1c(C(F)(F)C(=O)N[C@H](C)c2ncc(C#N)cc2F)c(=O)[nH]c2ccc(F)cc12 (single isomer, unassigned) [compound 2606] | – | – | – | 0.10 µM | 0.08 µM | 0.77 µM
14 | Cc1nccc2[nH]c(=O)c(CC(=O)N[C@@H](C)c3ccc(C#N)cn3)c(C)c12 (single isomer, unassigned) [compound 254] | 1.78 µM | 18.17 µM | 23.41 µM | – | – | –
15 | Cc1c(CC(=O)N[C@H](CO)c2ccc(F)cc2F)c(=O)[nH]c2ccnc(C(F)(F)F)c12 [compound 231] | 100.00 µM | 100.00 µM | 100.00 µM | – | – | –
16 | COc1cccc([C@@H](C)NC(=O)Cc2c(C)c3c(C)nccc3[nH]c2=O)c1 (single isomer, unassigned) [compound 314] | 100.00 µM | 100.00 µM | 100.00 µM | – | – | –

Row | SMILES | Skeletal EC25 ([1]; Y75 value) | Atrial EC25 [2, 4] | Ventricular EC25 ([3]; Y75 value) | Skeletal EC25 ([1]; Y75 value (no ‡ mark)) | Atrial EC25 ([2]; Y75 value (no ‡ mark)) | Ventricular EC25 ([3]; Y75 value (no ‡ mark))
17 | Cc1nc(C#N)cnc1[C@@H](C)NC(=O)C1(c2cc3c(F)c(F)ccc3[nH]c2=O)CC1 (single isomer, unassigned) [compound 4825] | – | – | – | 100.00 µM | 0.43 µM | 100.00 µM
18 | Cc1cc([C@H](C)NC(=O)Cc2c(C)c3c(C)c(F)ccc3[nH]c2=O)ncc1F (single isomer, unassigned) [compound 2077] | – | – | – | 0.29 µM | 1.50 µM | 100.00 µM
19 | C[C@H](NC(=O)[C@H](C)c1cc2nc(C#N)ccc2[nH]c1=O)c1ccc(F)cc1F (single isomer, unassigned) [compound 257] | 100.00 µM | 100.00 µM | 100.00 µM | – | – | –
20 | CC(C(=O)N[C@@H](C)c1ccc(F)cc1F)c1cc2c(Br)cccc2[nH]c1=O (stereo partly drawn) [compound 94] | – | – | – | 0.22 µM | 6.81 µM | 100.00 µM
21 | C[C@H](NC(=O)[C@@H](C)c1cc2c(F)cccc2[nH]c1=O)c1ccc(F)cc1F (single isomer, unassigned) [compound 102] | – | – | – | 3.90 µM | 100.00 µM | 100.00 µM
22 | CC(NC(=O)C1(c2cc3c(F)c(F)ccc3[nH]c2=O)CC1)c1cccc(C#N)n1 (single isomer, unassigned) [Compound 2569] | – | – | – | 100.00 µM | 4.84 µM | 100.00 µM
23 | Cc1nccc2[nH]c(=O)c(CC(=O)N[C@H](C)c3ccc(C#N)cc3F)c(C#N)c12 [compound 153] | 3.09 µM | 19.40 µM | 100.00 µM | – | – | –
24 | Cc1c(C(F)(F)C(=O)N[C@@H](C)c2cnc(C#N)cn2)c(=O)[nH]c2ccc(F)cc12 (single isomer, unassigned) [compound 4828] | – | – | – | 0.24 µM | 0.30 µM | 1.13 µM
25 | N#Cc1ccc([C@H](CO)NC(=O)Cc2c(C3CC3)c3cc(F)ccc3[nH]c2=O)c(F)c1 [compound 76] | – | – | – | 100.00 µM | 100.00 µM | 100.00 µM
26 | Cc1nccc2[nH]c(=O)c(C3(C(=O)N[C@@H](C)c4ncc(C#N)cc4F)CC3)c(C)c12 (single isomer, unassigned) [compound 3507] | 100.00 µM | 2.61 µM | 18.82 µM | – | – | –
27 | C[C@H](NC(=O)Cc1cc2c(F)c(F)ccc2[nH]c1=O)c1ccc(F)cc1F [compound 118] | – | – | – | 0.03 µM | 0.06 µM | 0.30 µM
28 | Cc1c(CC(=O)N[C@@H](C)c2ncc(C#N)cc2F)c(=O)[nH]c2ccc(F)c(Cl)c12 (single isomer, unassigned) [compound 2052] | – | – | – | 0.08 µM | 0.04 µM | 0.09 µM
29 | Cc1c(CC(=O)N[C@@H](C)c2ccc(F)cn2)c(=O)[nH]c2cccc(F)c12 [compound 44] | – | – | – | 0.05 µM | 0.21 µM | 1.97 µM
30 | Cc1c(CC(=O)N[C@H](C)c2ncc(C#N)cn2)c(=O)[nH]c2ccc(F)c(Cl)c12 (single isomer, unassigned) [compound 2055] | – | – | – | 0.11 µM | 0.06 µM | 0.26 µM
31 | CC(C(=O)N[C@@H](C)c1ccc(F)cc1F)c1cc2ccccc2[nH]c1=O (stereo partly drawn) [compound 134] | – | – | – | 7.99 µM | 100.00 µM | 100.00 µM

From patent publication US12448369B2 (Edgewise Therapeutics, Inc., priority 2023, dated 2025)
